Reference: PMC12603070, “A high-throughput screening approach to discover potential colorectal cancer chemotherapeutics: repurposing drugs to identify novel disruptors of 14-3-3 proteins” (Cell Death & Disease, 2025)
Where two headings read alike, the source gives them in different places. Numbered stars: 1 amine (or outer) side, 2 acyl side, 3 side chain; on linkers, the order of the positions; unused ones are H or OH. Bridge positions count the residues as written; N and C are the ends. Square brackets hold non-standard residues; d marks the D form. Peptide text beside a SMILES is read from it. * marks the point of attachment. pTerphenylCO(4''-OnC5H11) = CCCCCOc1ccc(-c2ccc(-c3ccc(C(=O)*)cc3)cc2)cc1; Orn(4R-OH,5R-OH) = O=C([C@H](C[C@@H](O)[C@@H](O)N[*:3])N[*:1])[*:2]; hTyr(3S-OH,4S-OH) = N[C@H](C(=O)O)[C@H](O)[C@@H](O)c1ccc(O)cc1; Pro(3S-OH,4S-Me) = C[C@H]1CN[C@H](C(=O)O)[C@H]1O; Hyp = O=C(O)[C@@H]1C[C@@H](O)CN1

Columns and labels:
[1] = system: HT-29 cells; test: Hoechst/propidium iodide cell death assay in HT-29; assay type: cell-based, human; conditions: for %Cell death HT-29: time not given; for cytotoxicity at 20 µM: Homo sapiens
Excerpt: (§1) A high-content imaging system (PerkinElmer; Operetta CLS), was used to quantify cell death and apoptosis by calculating the number of propidium iodide-positive cells relative to Hoechst-positive cells, and the number of Annexin V-positive cells relative to Hoechst-positive cells, respectively.

[2] = system: NIH-3T3 cells; test: Hoechst/propidium iodide cell death assay in NIH-3T3; assay type: cell-based; conditions: for cytotoxicity at 20 µM: Mus musculus, NIH3T3, 24 h, read-out: Percentage of cell death % 24h NIH3t3
Excerpt: as §1

[3] = system: Caco-2 cells; assay type: cell-based; conditions: for Percentage of cell death % 24h CACO-2: 20 µM; for Percentage of cell death % 48h, Caco-2: 20 μM
Excerpt: as §1

[4] = system: HT-29 and Caco-2 CRC cells; test: Cell death in CRC cells, statements covering both HT-29 and Caco-2 (screen at 20 µM, dose-response); assay type: cell-based, human
Experimental: Cells were plated at a density of 20,000 cells/well into 96-well plates (PerkinElmer; #6055302) and incubated overnight at 37 °C before the addition of the drugs. One hour prior to imaging, Hoechst 33342 (Invitrogen, #H3570) and propidium iodide (Invitrogen; #P3566) were added to the wells to achieve final concentrations of 50 ng/ml and 0.5 μg/ml, respectively. To measure apoptosis, AlexaFluor 488-conjugated Annexin V (ThermoFisher, Massachusetts, USA; #A13201) was also added at a dilution of 1:400 from the commercial stock. A high-content imaging system (PerkinElmer; Operetta CLS), was used to quantify cell death and apoptosis by calculating the number of propidium iodide-positive cells relative to Hoechst-positive cells, and the number of Annexin V-positive cells relative to Hoechst-positive cells, respectively. To assess caspase-dependent apoptosis, cells were pre-treated for 30 min with the caspase inhibitor Z-VAD-FMK (BD Biosciences, New Jersey, USA; #550377; 20 μM) or the negative control Z-FA-FMK (BD Biosciences; #550411; 20 μM) prior to the incubation of drugs.

[5] = target: T1, 14-3-3ζ:BAD-112-136F interactions (Homo sapiens, UniProt P63104); test: BRET sensor screen for disruption of 14-3-3ζ-Rluc8:BAD-112-136F-mCitrine in living NIH-3T3 cells; assay type: cell-based, murine; set-up: inhibition: dose or concentration left out as unconfirmed; conditions: for inhibition / inhibition at 20 µM: NIH3T3, 3 h, read-out: BRET reduction on NIH-3T3; for inhibition / BRET reduction on NIH-3T3: NIH-3T3 cells, hits from the primary screen
T1 construct: expressed in transfected cells; host or cells: NIH-3T3 fibroblasts, bi-directional pBI-CMV1 plasmid
T1 sequence (P63104 1-245): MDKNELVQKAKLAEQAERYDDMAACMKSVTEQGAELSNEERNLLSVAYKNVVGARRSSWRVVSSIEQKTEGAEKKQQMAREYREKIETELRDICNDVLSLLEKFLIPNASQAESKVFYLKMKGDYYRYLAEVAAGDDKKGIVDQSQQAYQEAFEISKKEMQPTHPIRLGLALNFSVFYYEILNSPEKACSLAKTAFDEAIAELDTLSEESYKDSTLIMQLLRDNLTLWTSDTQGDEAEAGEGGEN
Summary of the method: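 NIH-3T3 cells were transfected with the BRET sensor two days beforehand, then replated on poly-L-ornithine-coated plates and grown 24 h at 37 °C. Medium was then replaced with Krebs buffer (pH 7.4). Z′-score was calculated to judge HTS robustness.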

[6] = HT-29, 24 h, 20 µM, 24 h, read-out: Percentage of cell death % 24h HT-29
[7] = HT-29, 48 h, HT-29, 48h, 20 μM, read-out: Percentage of cell death % 48h, HT-29
[8] = NIH-3T3 expressing BRET sensor, 20 µM, 3 h
[9] = HT-29, 24 h, read-out: Percentage of cell death % 24h HT-29
[10] = HT-29, 48 h, read-out: Percentage of cell death % 48h, HT-29

SMILES	%Cell death HT-29 ([1]; HT-29) [%]	cytotoxicity at 20 µM [1, 6] [%]	cytotoxicity at 20 µM [1, 7] [%]	cytotoxicity at 20 µM ([2]; 20 µM, 24 h) [%]	Percentage of cell death % 48h, NIH3T3 [2] [%]	Percentage of cell death % 24h CACO-2 [3] [%]	Percentage of cell death % 48h, Caco-2 [3] [%]	%Cell death Caco-2 ([3]; time not given, text says 48 h) [%]	Lowest concentration that significantly induced cell death ([4]; dose-response 2.5-20 µM in HT-29 and Caco-2) [µM]	Efficacy in the magnitude of cell death attained ([4]; dose-response in CRC cells)	inhibition [5] [%]	inhibition at 20 µM [5, 8] [%]	%Cell death Caco-2 [3] [%]	cytotoxicity at 20 µM [1, 9] [%]	cytotoxicity at 20 µM [1, 10] [%]	cytotoxicity at 20 µM [2] [%]	inhibition at 20 µM [5] [%]	BRET reduction on NIH-3T3 [5]
CC(C)(C)C#Cc1cc(N(C(=O)[C@H]2CC[C@H](C)CC2)[C@H]2CC[C@H](O)CC2)c(C(=O)O)s1 [VX-222 (VCH-222, Lomibuvir), Lomibuvir]	78.5	3.68	78.5	5.5	38.6762	4.951	36.3165	36.3	5	inferior to other candidates	41.6	41.6	–	–	–	–	–	–
CN(C(=O)CN(CCO)CC(=O)N(C)C(C)(C)Cc1ccccc1)C(C)(C)Cc1ccccc1 [Oxethazaine]	53.1	3.21	53.1	28.2	9.9556	–	–	–	–	–	28.9	28.9	13.9	–	–	–	–	–
CC(C)Oc1ccc(-c2nc(-c3cccc4c3CC[C@@H]4NCCO)no2)cc1C#N [Ozanimod (RPC1063), Ozanimod]	–	1.29	3.92	89.9	87.9452	10.8525	17.0415	–	–	–	29.4	29.4	–	–	–	–	–	–
CO/N=C1\C[C@]2(C[C@@H]3C[C@@H](C/C=C(\C)C[C@@H](C)/C=C/C=C4\CO[C@@H]5[C@H](O)C(C)=C[C@@H](C(=O)O3)[C@]45O)O2)O[C@H](/C(C)=C/C(C)C)[C@H]1C [Moxidectin]	78.4	8.61	78.4	80.7	68.7026	–	–	–	–	–	44	44	8.4	–	–	–	–	–
Clc1ccc(C(Cn2ccnc2)OCc2c(Cl)cccc2Cl)c(Cl)c1 (stereo not shown) [Isoconazole nitrate]	–	1.88	3.88	8.57	4.218	5.943	5.407	–	–	–	45.1	45.1	–	–	–	–	–	–
CCCCCOc1ccc(-c2ccc(-c3ccc(C(=O)N[C@H]4C[C@@H](O)[C@@H](O)NC(=O)[C@@H]5[C@@H](O)[C@@H](C)CN5C(=O)[C@H]([C@@H](C)O)NC(=O)[C@H]([C@H](O)[C@@H](O)c5ccc(O)cc5)NC(=O)[C@@H]5C[C@@H](O)CN5C(=O)[C@H]([C@@H](C)O)NC4=O)cc3)cc2)cc1 [Anidulafungin] ({pTerphenylCO(4''-OnC5H11)}-[Orn(4R-OH,5R-OH)]T[Hyp][hTyr(3S-OH,4S-OH)]T[Pro(3S-OH,4S-Me)]; lactam 1-C)	–	–	–	–	12.0742	1.705	1.424	–	–	–	–	–	–	4.73	7.05	33.6	27	27.0241
COc1cc(C(=O)O)ccc1NC(=O)[C@@H]1N[C@@H](CC(C)(C)C)[C@](C#N)(c2ccc(Cl)cc2F)[C@H]1c1cccc(Cl)c1F [RG7388]	–	9.54	50	35.1	20.6788	4.882	4.655	–	–	–	41.6	41.6	–	–	–	–	–	–
C[C@H]1O[C@@H](O[C@H]2CC[C@@]3(C)[C@@H](CC[C@]4(C)[C@@H]3C=C[C@]35OC[C@@]6(CCC(C)(C)C[C@H]63)[C@@H](O)C[C@]54C)[C@]2(C)CO)[C@H](O)[C@@H](O[C@@H]2O[C@H](CO)[C@@H](O)[C@H](O)[C@H]2O)[C@H]1O [Saikosaponin A]	87.6	–	–	–	80.787	–	–	–	–	–	–	–	1.2	93.8	87.6	80.7	53.8	53.7827
Cn1ncc(Cl)c1-c1cc(C(=O)N[C@H](CN)Cc2cccc(F)c2)sc1Cl [Afuresertib]	–	3.99	37.5	57.7	38.6266	23.3726	43.2801	–	–	–	27.8	27.8	–	–	–	–	–	–
